Target: T1, SARS-CoV-2 ORF3a (Severe acute respiratory syndrome coronavirus 2, UniProt P0DTC3)
T1 construct: gene 3a
Experiment: isothermal titration calorimetry
Type: binding

T1 sequence (P0DTC3 whole entry): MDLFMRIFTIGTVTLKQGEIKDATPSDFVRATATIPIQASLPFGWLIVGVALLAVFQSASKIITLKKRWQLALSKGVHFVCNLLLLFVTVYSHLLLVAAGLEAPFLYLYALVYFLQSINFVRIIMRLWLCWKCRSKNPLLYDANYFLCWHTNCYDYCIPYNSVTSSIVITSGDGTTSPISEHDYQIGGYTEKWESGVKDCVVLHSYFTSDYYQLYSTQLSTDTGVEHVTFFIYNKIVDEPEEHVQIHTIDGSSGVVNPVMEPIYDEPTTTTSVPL

Question: For `NC(=O)c1ccc(-c2nc(-c3ccc4c(c3)OCO4)c(-c3ccccn3)[nH]2)cc1` [SB431542], which Kd is on record?
Answer: 220 ± 68.1 nM
